From patent publication US20260256723A1, “THIOL-BASED COMPOUNDS AND COMPOSITIONS AND USES THEREOF” (CASE WESTERN RESERVE UNIVERSITY, priority 2022, published 2026)
Where “and” joins values, the source holds several entries; their conditions need not be identical. Equal values may be shown once. Entries after “also recorded” stand apart in the source; their conditions may differ. Read-outs that look alike come from different tables or passages of the source.

What was measured:
[1] = tested on: unanesthetized rats receiving continuous intravenous infusion of fentanyl; set-up: species or system Sprague Dawley rat; details: rat, in vivo
[2] = tested on: rats given bolus injections of fentanyl or morphine; details: rat, in vivo
[3] = tested on: unanesthetized rats receiving continuous intravenous infusion of fentanyl; set-up: species or system Sprague Dawley rat; details: rat, in vivo; remark: listed apart in the source
[4] = tested on: rats receiving infusion of fentanyl; set-up: species or system Sprague-Dawley rat; details: rat, in vivo
[5] = tested on: unanesthetized rats receiving continuous intravenous infusion of fentanyl; set-up: species or system Sprague Dawley rat; details: rat, in vivo; remark: listed apart in the source
[6] = tested on: unanesthetized rats receiving continuous intravenous infusion of fentanyl; set-up: species or system Sprague Dawley rat; details: rat, in vivo; remark: listed apart in the source
[7] = tested on: freely moving rats injected with morphine; test: Ventilatory responses to morphine and subsequent injections of L-NACme; type: in vivo, rat
[8] = after morphine 10 mg/kg IV, two injections of L-NACme 500 μmol/kg IV
[9] = before morphine, group later given L-NACme
[10] = morphine 10 mg/kg IV, before L-NACme

CC(=O)N[C@@H](CS)C(=O)O [L-NAC, N-acetyl-L-cysteine]
Actual TFL values [1]: 11.9 ± 0.1 s and 11.5 ± 0.1 s
Effect of bolus L-NAC on bolus opioid [2]: completely without effect
Righting reflex, time to get back on all four paws [3]: 4.6 ± 1.5 s
Fecal output, number of pellets, total weight (words, FIG. 13C-D) [4]: normalized by L-NAC injections
Urine and fecal parameters (words, FIG. 13) [4]: did not affect parameters in vehicle-infused rats
EEP, actual value [5]: 45.4 ms
EF50, baseline [5]: 0.36 ± 0.03 mL/s
EIP, actual value [5]: 7.9 ms
Effect on Freq, TV and MV (words, FIG. 1) [5]: immediate and sustained increase in these parameters to levels approaching (Freq and MV) and actually reaching (TV) pre-infusion levels; also recorded: did not further boost Freq whereas it did boost TV and therefore MV
Effect on NEBI (words, FIG. 11) [5]: noticeable decrease in NEBI
Effect on PEF (words, FIG. 4) [5]: substantial and sustained increases in PEF
Effect on PIF (words, FIG. 4) [5]: sustained partial recover of PIF
Effect on Te (words, FIG. 2) [5]: prevented this increase in Te
Effect on Ti/Te (words, FIG. 2) [5]: sustained elevation in Ti/Te compared to vehicle-injected rats
Effect on expiratory drive (words, FIG. 5) [5]: immediate, substantial and sustained increases in expiratory dive
End Expiratory Pause, baseline [5]: 44.3 ± 4.0
ExpD TV/Te, actual value [5]: 5.5 mL/s
Expiratory Drive (TV/Te), baseline [5]: 5.5 ± 0.3 mL/s
Expiratory Time (Te), baseline [5]: 0.443 ± 0.022 s
Freq, actual value [5]: 102 breaths/min
Frequency of Breathing (Freq), baseline [5]: 102 ± 5 breaths/min
InspD (TV/Ti), actual value [5]: 12.4 mL/s
Inspiratory Drive (TV/Ti), baseline [5]: 12.4 ± 0.6 mL/s
Inspiratory Time (Ti), baseline [5]: 0.200 ± 0.010 s
Level of NEBI (words, FIG. 11) [5]: not noticeably different from those that received the second injection of vehicle
MV, actual value [5]: 247 mL/min
Minute Ventilation, baseline [5]: 247 ± 14 mL/min
NEBI, actual value [5]: 2.6%
PEF, actual value [5]: 11.2
PIF/PEF, actual value [5]: 1.61
PIF/PEF, baseline [5]: 1.63 ± 0.11
Pause, (Te/RT) − 1, baseline [5]: 0.40 ± 0.08
Pause, (Te/RT)-1, actual value [5]: 0.40
Peak Expiratory Flow (PEF), baseline [5]: 11.2 ± 0.7 mL/s
Peak Inspiratory Flow (PIF), baseline [5]: 17.6 ± 1.1 mL/s
RT, actual value [5]: 0.32 s
Relaxation Time (RT), baseline [5]: 0.32 ± 0.02 s
TV, actual value [5]: 2.42 mL
Te − RT, baseline [5]: 0.12 ± 0.02
Te, actual value [5]: 0.44 s
Te-RT, actual value [5]: 0.12
Ti, actual value [5]: 0.20 s
Ti/Te, actual value [5]: 0.46
Ti/Te, baseline [5]: 0.46 ± 0.02
Tidal Volume, baseline [5]: 2.42 ± 0.05 mL
Total (cumulative) change in NEBI (words, FIG. 7) [5]: virtually eliminated NEBI
Total (cumulative) change in PEF (words, FIG. 7) [5]: pronounced increase in PEF
Total (cumulative) change in expiratory drive (words, FIG. 7) [5]: converted the decrease in expiratory drive (ExpD) to an increase
EF50, total percent change ([5]; iv): +57.6 ± 11.3%
EIP, actual value ([5]; iv): 20.2 ms and 19.7 ms
EIP, arithmetic change ([5]; iv): +12 msec
End Expiratory Pause, total percent change ([5]; iv): +9.1 ± 6.3%
End Inspiratory Pause, total percent change ([5]; iv): +147.0 ± 12.9%
ExpD TV/Te, actual value ([5]; iv): 4.6 mL/s and 6.9 mL/s and 8.1 mL/s
Expiratory Drive (TV/Te), total percent change ([5]; iv): −14.6 ± 3.1%
Expiratory Time (Te), total percent change ([5]; iv): −10.3 ± 3.5%
Freq, actual value ([5]; iv): 78 breaths/min and 90 breaths/min and 89 breaths/min
Frequency of Breathing (Freq), total percent change ([5]; iv): −21.6 ± 2.4%
InspD (TV/Ti), actual value ([5]; iv): 4.8 mL/s and 6.6 mL/s and 7.9 mL/s
Inspiratory Drive (TV/Ti), total percent change ([5]; iv): −56.3 ± 2.7%
Inspiratory Time (Ti), total percent change ([5]; iv): +82.5 ± 14.1%
MV, actual value ([5]; iv): 135 mL/min and 210 mL/min and 241 mL/min
Minute Ventilation, total percent change ([5]; iv): −39.9 ± 2.7%
NEBI, actual value ([5]; iv): 2.0% and 1.0% and 1.3%
NEBI, arithmetic change ([5]; iv): −0.6% and −1.6% and −1.3%
PEF, actual value ([5]; iv): 11.2 and 13.8 and 15.3
PIF/PEF, actual value ([5]; iv): 0.82 and 0.84 and 0.93
PIF/PEF, total percent change ([5]; iv): −42.1 ± 4.7%
Pause, (Te/RT) − 1, total percent change ([5]; iv): +348.6 ± 67.4%
Pause, (Te/RT)-1, actual value ([5]; iv): 1.32 and 0.94
Peak Expiratory Flow (PEF), total percent change ([5]; iv): −2.2 ± 2.8%
Peak Inspiratory Flow (PIF), total percent change ([5]; iv): −44.0 ± 3.7%
RT, actual value ([5]; iv): 0.17 s and 0.18 s
Relaxation Time (RT), total percent change ([5]; iv): −41.4 ± 4.6%
TV, actual value ([5]; iv): 1.73 mL and 2.34 mL and 2.71 mL
Te − RT, total percent change ([5]; iv): +129.9 ± 28.2%
Te, actual value ([5]; iv): 0.38 s and 0.34 s
Te-RT, actual value ([5]; iv): 0.21 and 0.17 and 0.16
Ti, actual value ([5]; iv): 0.36 s and 0.35 s
Ti/Te, actual value ([5]; iv): 0.96 and 1.06 and 1.05
Ti/Te, total percent change ([5]; iv): +104.4 ± 11.6%
Tidal Volume, total percent change ([5]; iv): −23.5 ± 2.5%
A-a gradient [6]: 17.9 ± 0.7 mmHg
Arterial blood pH [6]: 7.442 ± 0.008
Beneficial effects on ABG chemistry and A-a gradient (words, FIG. 9) [6]: still evident 30 min after the second injection of L-NAC
pCO2 [6]: 35.7 ± 0.03 mmHg
pO2 [6]: 92.1 ± 0.07 mmHg
sO2 [6]: 99.0 ± 0.4%
A-a gradient ([6]; iv): 27.6 ± 0.8 mmHg and 23.1 ± 1.3 mmHg and 26.1 ± 1.5 mmHg
Arterial blood pH ([6]; iv): 7.162 ± 0.026 and 7.392 ± 0.006 and 7.443 ± 0.013
pCO2 ([6]; iv): 57.3 ± 1.5 mmHg and 36.2 ± 1.1 mmHg and 35.2 ± 0.4 mmHg
pO2 ([6]; iv): 58.4 ± 1.9 mmHg and 86.3 ± 1.6 mmHg and 84.5 ± 1.4 mmHg
sO2 ([6]; iv): 59.1 ± 1.8% and 93.6 ± 0.9% and 92.4 ± 1.2%

CCOC(=O)[C@H](CS)NC(C)=O [L-NACme, N-acetyl-L-cysteine ethyl ester]
Frequency, Drug - entire 75 min, % change [7, 8]: +11 ± 2 %
Minute Ventilation, Drug - entire 75 min, % change [7, 8]: −19 ± 4 %
Tidal Volume, Drug - entire 75 min, % change [7, 8]: −22 ± 3 %
Frequency, Pre values [7, 9]: 98 ± 4
Minute Ventilation, Pre values [7, 9]: 259 ± 17
Tidal Volume, Pre values [7, 9]: 2.61 ± 0.16
Frequency, Morphine - first 15 min response (%) [7, 10]: −4.9 ± 2.8%
Frequency, Morphine - peak (+) response (%) [7, 10]: +42 ± 6 %
Frequency, Morphine peak (−) response (%) [7, 10]: −22 ± 4 %
Minute Ventilation, Morphine - first 15 min response (%) [7, 10]: −35 ± 3 %
Minute Ventilation, Morphine - peak (+) response (%) [7, 10]: +20 ± 6 %
Minute Ventilation, Morphine peak (−) response (%) [7, 10]: −54 ± 4 %
Tidal Volume, Morphine - first 15 min response (%) [7, 10]: −34 ± 3 %
Tidal Volume, Morphine - peak (+) response (%) [7, 10]: −16 ± 6 %
Tidal Volume, Morphine peak (−) response (%) [7, 10]: −40 ± 6 %
